Legend:
[1] = test system: Human dermal fibroblast (hF); assay: Cytotoxicity test (cell survival), MTT assay, hF; format: cell-based; conditions: 24 hours
Experimental: (§1) 3. Cytotoxicity Test (Cell Survival Test)
(§2) Cytotoxicity was conducted through an MTT assay (Chemicon, Serologicals Corporation, USA) as follows.
(§3) Cells were seeded at a density of 3×10^4 cells/well in 96-well plates (Nunc Do, Denmark).
(§4) When the cells were at a confluence of about 60˜70%, 24 hours after seeding, the media was exchanged for 100 μl of fresh, serum-free media containing various respective concentrations of ALA or ALA-ester, after which the cells were incubated for an additional 24 hours.
(§5) An MTT solution (0.5 mg/mL) was added in an amount of […] to each well, followed by incubation for 4 hours to form formazan crystals. A color-developing solution (isopropanol with 0.04 N HCl) was added in an amount of […] per well to solubilize the formazan crystals.
(§6) The plates were measured for absorbance at 570 nm using an ELISA reader (EMAX, Molecular Device, USA).
(2) Human Dermal Fibroblast (hF)

[2] = test system: human epithelium keratocyte (HEK), human dermal fibroblast (hF), squamous cell carcinoma (A431), malignant melanoma (TXM13); assay: Fluorescence spectroscopy of PpIX synthesis in all cell lines (FIG. 2); format: cell-based; conditions: range from 0.01 to 1 mM, 4 hours incubation
Experimental: (§7) 4. Fluorescence Spectroscopy
(§8) The synthesis of PpIX, induced by ALA and unsaturated alkyl esters of ALA in cells and skin tissues, was quantified using fluorescence spectroscopy.
(§9) The intensity of PpIX was measured on a fluorescence spectrophotometer (Uvikon, model 943) with excitation at 408 nm.
(§10) Each cell line was plated at a density of 2×10^5 cells in a 10 cm^2-dish (Falcon), and when the cells reached a confluent state of 70˜80%, serum-free media containing various concentrations (0.001˜1 mM) of ALA or ALA esters was added to the cells, followed by incubation for 4 hours.
(§11) After being washed once with PBS, the cells were detached with a 50% methanol solution containing 1M […] (HClO4) and scraped off using a Costar cell scraper.
(§12) The cells thus harvested were incubated for 5 min and centrifuged.
(§13) The fluorescence of the supernatant thus obtained was determined using a spectrofluorometer with excitation at 405 nm and emission at 605 nm.
(§14) The results are graphed in FIGS. 1 and 2.

[3] = test system: all of the cells except for HEK (hF, A431, TXM 13); assay: Cytotoxicity test (MTT), summary for all of the cells except for HEK; format: cell-based; conditions: text summary of the tables
Experimental: as §1, §2, §3, §4, §5, §6

[4] = test system: Squamous cell carcinoma (A431); assay: Cytotoxicity test (cell survival), MTT assay, A431; format: cell-based; conditions: 24 hours
Experimental: as §1, §2, §3, §4, §5, §6
(3) Squamous Cell Carcinoma (A431)

[5] = test system: human epidermal keratinocyte (HEK), human dermal fibroblast (hF), squamous cell carcinoma (A431), malignant melanoma (TXM 13); assay: Fluorescence microscopy of PpIX in cell lines (FIG. 5); format: cell-based; conditions: normal and cancer cell lines, fluorescence microscope
Experimental: 5. Observation Under Fluorescence Microscope
Each cell line and ICR mouse skin tissue were treated with the ALA esters of the present invention, and the regions where PpxIX was expressed were observed under a fluorescence microscope.
The normal cell lines, human epidermal keratinocytes (HEK) and human dermal fibroblasts (hF) and the cancer cell lines squamous cell carcinoma A431 and malignant melanoma TXM13 were treated with […] of the ALA esters of the present invention or ALA, followed by monitoring the fluorescence of the synthesized PpIX under a fluorescence microscope.

[6] = test system: Each cell line; assay: Apoptosis and cell death by Annexin V-FITC/PI flow cytometry after visible light (FIG. 8); format: cell-based
Experimental: 6. Research into Apoptosis and Cell Death A. Cell Line Each cell line cultured in 6-well plates was treated with ALA or ALA esters of the present invention, irradiated with visible light from an LED, and stained with Annexin V-FITC and PI (Annexin V-FITC Apoptosis detection Kit, BD) before the measurement of apoptosis using flow cytometry (FACSCalibur, BD, USA).

[7] = test system: Malignant melanoma (TMX 13); assay: Cytotoxicity test (cell survival), MTT assay, TXM 13; format: cell-based; conditions: 24 hours
Experimental: as §1, §2, §3, §4, §5, §6
(4) Malignant Melanoma (TMX 13)

[8] = test system: Human epidermal keratinocyte (HEK); assay: Cytotoxicity test (cell survival), MTT assay, HEK; format: cell-based; conditions: 24 hours; for MTT absorbance (OD): 570 nm; for Cell survival Avg (%) ± SD (%): Table 3; for activity at 10 µM / activity at 2000 µM / activity at 50 µM / activity at 100 µM / activity at 500 µM / activity at 1000 µM / activity at 5000 µM: Homo sapiens, Table 2, read-out: Cell survival (% of control C, in brackets); for activity at 10 µM: HEK001, 0.01 mM; for activity at 2000 µM: HEK2, 2 mM; for activity at 50 µM / activity at 100 µM / activity at 500 µM / activity at 1000 µM / activity at 5000 µM: Keratinocyte
Experimental: as §1, §2, §3, §4, §5, §6
(1) Human Epidermal Keratinocyte (HEK)
Cell survival of the human epidermal keratinocytes treated with ALA esters of the present invention and with ALA was compared. The results are summarized in Tables 1 and 2, which are represented in different manners depending on the measurements.

[9] = test system: skin of ICR mice (epidermis, sebaceous gland); assay: Cell death in skin tissue after ointment and LED irradiation, H&E (FIGS. 9, 10); format: in vivo; conditions: for Sebaceous gland morphology after irradiation: 24 hours after visible light 25 J/cm^2, FIG. 10
Experimental: Ointments comprising ALA or the ALA esters of the present invention at various concentrations (5˜15%) were applied in a predetermined amount ([…]) to the back of shaved ICR mice.
1 and 4 hours after the application, the back was irradiated with LED visible light (dose 25 J/cm^2).
24, 48 and 72 hours after the irradiation, skin samples were taken from the back of the mice, stained with hematoxylin-eosin (H&E) and observed for cell death.

[10] = test system: A431 cells; assay: Fluorescence spectroscopy of PpIX synthesis in A431 cells (FIG. 1); format: cell-based; conditions: 4 hours incubation, excitation 405 nm, emission 605 nm
Experimental: as §7, §8, §9, §10, §11, §12, §13, §14

## NCC(=O)CCC(=O)O [ALA, 5-Aminolevulinic acid]
[1]; 0.01 mM
  Cell survival Avg (%) ± SD (%): 109.74 ± 11.55%
[1]; 0.05 mM
  Cell survival Avg (%) ± SD (%): 125.18 ± 14.08%
[1]; 0.1 mM
  Cell survival Avg (%) ± SD (%): 125.27 ± 16.1%
[1]; 0.5 mM
  Cell survival Avg (%) ± SD (%): 95.218 ± 9.47%
[1]; 1 mM
  Cell survival Avg (%) ± SD (%): 99.89 ± 18.3%
[1]; 2 mM
  Cell survival Avg (%) ± SD (%): 97.66 ± 9.45%
[2]
  PpIX synthesis, dose dependence: increase in a dose-dependent manner
[3]
  Cell survival: ≥ 70%
[4]; A431, 0.01 mM
  Cell survival Avg (%) ± SD (%): 102.99 ± 0.71%
[4]; A431, 0.05 mM
  Cell survival Avg (%) ± SD (%): 104.98 ± 0.35%
[4]; A431, 0.1 mM
  Cell survival Avg (%) ± SD (%): 106.79 ± 0.15%
[4]; A431, 0.5 mM
  Cell survival Avg (%) ± SD (%): 81.6 ± 6.16%
[4]; A431, 1 mM
  Cell survival Avg (%) ± SD (%): 84.17 ± 5.12%
[4]; A431, 2 mM
  Cell survival Avg (%) ± SD (%): 82.63 ± 2.44%
[5]
  PpIX fluorescence in cytoplasm: can induce the synthesis of PpIX in both normal and cancer cell lines
[6]; 1 mM, then irradiation 5-20 J/cm^2, FIGS. 8C and D
  Photo-induced apoptosis (Annexin V/PI): induced the cells to undergo apoptosis (Annexin V+/PI−) or the late stage of apoptosis (Annexin V+/PI+)
[6]; treated but with no irradiation with visible light, FIGS. 8A and B
  Cell survival (flow cytometry): ≥ 85%
[7]; TXM 13, 0.01 mM
  Cell survival Avg ± SD (%): 100 ± 10.22%
[7]; TXM 13, 0.05 mM
  Cell survival Avg ± SD (%): 93.12 ± 5.82%
[7]; TXM 13, 0.1 mM
  Cell survival Avg ± SD (%): 86.66 ± 6.95%
[7]; TXM 13, 0.5 mM
  Cell survival Avg ± SD (%): 83.75 ± 9.57%
[7]; TXM 13, 1 mM
  Cell survival Avg ± SD (%): 89.91 ± 6.33%
[7]; TXM 13, 2 mM
  Cell survival Avg ± SD (%): 93.6 ± 5.13%
[8]; 0.01 mM
  MTT absorbance (OD): 3.428 OD
  Cell survival Avg (%) ± SD (%): 131.83 ± 0.9%
[8]; 0.05 mM
  MTT absorbance (OD): 3.318 OD
  Cell survival Avg (%) ± SD (%): 112.32 ± 0.7%
  activity at 50 µM: 94.5%
[8]; 0.1 mM
  MTT absorbance (OD): 3.457 OD
  Cell survival Avg (%) ± SD (%): 132.21 ± 0.35%
  activity at 100 µM: 98.5%
[8]; 0.5 mM
  MTT absorbance (OD): 3.285 OD
  Cell survival Avg (%) ± SD (%): 103.43 ± 0.15%
  activity at 500 µM: 92.8%
[8]; 1 mM
  MTT absorbance (OD): 2.802 OD
  Cell survival Avg (%) ± SD (%): 100.94 ± 6.16%
  activity at 1000 µM: 79.7%
[8]; 2 mM
  MTT absorbance (OD): 2.179 OD
  Cell survival Avg (%) ± SD (%): 84.9 ± 5.12%
[8]; 5 mM
  MTT absorbance (OD): 1.659 OD
  activity at 5000 µM: 47.2%
[8]
  activity at 10 µM: 97.6%
  activity at 2000 µM: 62.1%
[9]; 24 hours after visible light 25 J/cm^2, FIG. 9A
  Epidermis histology (H&E) after irradiation: apoptosis or necrosis of the epidermis
[9]
  Sebaceous gland morphology after irradiation: destroyed partially or wholly

## C=CCCCCOC(=O)CCC(=O)CN [ALA-6, 5-Aminolevulinic acid 5-hexenyl ester]
[1]; 0.01 mM
  Cell survival Avg (%) ± SD (%): 113.29 ± 13.51%
[1]; 0.05 mM
  Cell survival Avg (%) ± SD (%): 98.47 ± 13.03%
[1]; 0.1 mM
  Cell survival Avg (%) ± SD (%): 92.42 ± 13.86%
[1]; 0.5 mM
  Cell survival Avg (%) ± SD (%): 91.41 ± 9.04%
[1]; 1 mM
  Cell survival Avg (%) ± SD (%): 80.78 ± 5.6%
[1]; 2 mM
  Cell survival Avg (%) ± SD (%): 86.12 ± 5.37%
[4]; A431, 0.01 mM
  Cell survival Avg (%) ± SD (%): 101.04 ± 0.88%
[4]; A431, 0.05 mM
  Cell survival Avg (%) ± SD (%): 91.32 ± 3.42%
[4]; A431, 0.1 mM
  Cell survival Avg (%) ± SD (%): 86.8 ± 3.22%
[4]; A431, 0.5 mM
  Cell survival Avg (%) ± SD (%): 84.16 ± 5.58%
[4]; A431, 1 mM
  Cell survival Avg (%) ± SD (%): 88.47 ± 4.59%
[4]; A431, 2 mM
  Cell survival Avg (%) ± SD (%): 66.21 ± 4.43%
[7]; TXM 13, 0.01 mM
  Cell survival Avg ± SD (%): 92.05 ± 9.09%
[7]; TXM 13, 0.05 mM
  Cell survival Avg ± SD (%): 99.41 ± 8.25%
[7]; TXM 13, 0.1 mM
  Cell survival Avg ± SD (%): 81.45 ± 6.38%
[7]; TXM 13, 0.5 mM
  Cell survival Avg ± SD (%): 77.18 ± 8.17%
[7]; TXM 13, 1 mM
  Cell survival Avg ± SD (%): 76.06 ± 6.81%
[7]; TXM 13, 2 mM
  Cell survival Avg ± SD (%): 53.24 ± 6.8%
[8]; 0.01 mM
  MTT absorbance (OD): 3.13 OD
  Cell survival Avg (%) ± SD (%): 106.44 ± 0.37%
[8]; 0.05 mM
  MTT absorbance (OD): 3.413 OD
  Cell survival Avg (%) ± SD (%): 77.97 ± 0.88%
  activity at 50 µM: 99.4%
[8]; 0.1 mM
  MTT absorbance (OD): 3.18 OD
  Cell survival Avg (%) ± SD (%): 69 ± 3.42%
  activity at 100 µM: 92.7%
[8]; 0.5 mM
  MTT absorbance (OD): 2.521 OD
  Cell survival Avg (%) ± SD (%): 61.39 ± 3.22%
  activity at 500 µM: 73.4%
[8]; 1 mM
  MTT absorbance (OD): 2.548 OD
  Cell survival Avg (%) ± SD (%): 62 ± 5.58%
  activity at 1000 µM: 74.3%
[8]; 2 mM
  MTT absorbance (OD): 2.306 OD
  Cell survival Avg (%) ± SD (%): 62 ± 1.59%
[8]; 5 mM
  MTT absorbance (OD): 1.388 OD
  activity at 5000 µM: 40.2%
[8]
  activity at 10 µM: 91.2%
  activity at 2000 µM: 67.3%
[10]
  PpIX synthesis compared with ALA: greater PpIX synthesis in A431 cells than did ALA
[9]
  Sebaceous gland morphology after irradiation: destroyed partially or wholly
[9]; 48 hours after visible light 25 J/cm^2, FIGS. 9B and 9C
  Epidermis histology (H&E) after irradiation: both necrosis and rejuvenation

Reference: patent US8198325B2, “Unsaturated alkyl esters of 5-aminolevulinic acid, their preparation and their use” (Industry Foundation of Chonnam National University, priority 2006, dated 2012)
